Experimental data as given in patent publication EP1304101A1, “Composition and method for use of pyridinium derivatives in cosmetic and therapeutic applications” (Torrent Pharmaceuticals Ltd, priority 2001, dated 2003).
“And” between values parts separate entries of the source, which are not always exact repeats. Equal values may be shown once.

Assays:
AGE-BSA = molecular target: T1, AGE-BSA (Bos taurus, UniProt P02769); assay: In-vitro AGE breaking activity by ELISA (16 weeks AGE-BSA incubated with test compound); assay type: biochemical, bovine; conditions: for % Breakage: 37°C, 24 hours; for AGE breaking activity compared to PTB / potency (AGE breaking activity compared to PTB): comparison in words based on Table 2
T1 construct: Bovine serum albumin (fraction V) (BSA); from tissue
Method: AGE breaking activity has been confirmed by the screening procedure as mentioned below: • Materials: • Bovine serum albumin (fraction V) (BSA) • Glucose, analytical grade • Phosphate buffered saline (PBS) • Equipment: • Microplate ELISA Reader - Spectramax Plus (Molecular Devices, USA) • Microplate washer, (Bio -Tec Instruments, USA) • pH meter • Methods of experiment: Elisa (Enzyme Linked Immunosorbent Assay) 160 mg/ml of protein, bovine serum albumin, BSA and 1.6M glucose sugar were dissolved in phosphate buffered saline, PBS. Sodium azide was added at 0.02% concentration as a preservative. The solution was filtered asceptically through a 0.22 µM filter and kept for aging at 37°C for 16 weeks. After 16 weeks the solution was dialyzed against PBS, aliquoted and stored at - 20°C.
To determine the AGE breaking activity, 10 µg/ml of the 16 weeks AGE-BSA was incubated with different concentrations of the test compounds at 37°C for 24 hours and AGE breaking activity of the test compounds by ELISA was determined.
Different concentrations of 16 weeks AGE-BSA were coated on a microtitre plate as standard. Each concentration is coated in triplicates. • 2. The test samples were coated on microtitre plate at a concentration of 5 ng. to 20 ng per well in triplicates. • 3. The plate was incubated at 37°C for one hour. • 4. After incubation the plate was washed with PBST (PBS with 0.05% Tween 20). • 5. Blocking with 5% skimmed milk in PBS at 37°C for one hour was done. • 6. The plate was washed with PBST. • 7. Primary antibody against AGE-BSA was added and the plate is incubated at 37°C for one hour. • 8. The plate was washed with PBST • 9. Secondary antibody anti rabbit HRPO (Horse-Radish Per Oxidase) conjugate was added and the plate is incubated at 37°C for one hour. • 10. The plate was washed with PBST. • 11. Colour development with OPD (orthophenylenediamine dihydrochloride) and hydrogen peroxide was done. • 12. OD (optical density) at (450nm reading - 620nm reading) was measured after incubation at 37°C for 15 minutes with Microplate ELISA Reader.
The breaker activity of the compounds were determined by the following formula: % Breaker activity =(OD450-620 Control - OD450-620 Test)/(OD450-620 Control)x 100 [formula] OD450-620Control= Absorbance of 20ng AGE-BSA after incubation at 37°C for 24 hours without test compound OD450-620Test= Absorbance of 20ng AGE-BSA after incubation at 37°C for 24 hours with required concentration of test compound

[1] = Free radical scavenging activity on ABTS radical cation (absorbance at 730nm); assay type: biochemical
Method: This method measures the relative ability of free radical scavenging substances to scavenge the ABTS ^.+ i.e. 2,2-Azino-bis-(3-ethyl benzo thiazoline-6-sulfonate) radical cation as compared to a standard amount of standard or free radical scavengers antioxidants. Incubation of ABTS with Peroxidase (metmyoglobin) and hydrogen peroxide results in the production of radical cation ABTS^.+ . This species is blue- green in colour and can be detected at 730nm. Antioxidants or free radical scavengers in the added sample that causes suppression of the color to a degree that is proportional to their concentration.
• A. Phosphate Citrate Buffer (pH 5.0): 48.5ml of 0.1M citric acid with sufficient 0.2M disodium hydrogen phosphate to produce 100 ml. • B. Phosphate Buffer Saline (PBS): Dissolve 40.0g of NaCl, 1.0g of KCI, 1.0g of KH2PO4 and 3.05g of Na2HPO4 in 1 litre milli-Q water. Dilute 200ml of above solution to 1 litre with milli-Q water (pH 7.4-7.6). • C. 3µM stock solution of Peroxidase was prepared in phosphate buffer saline pH 7.4(PBS). • D. 1.08 mM stock solution of Hydrogen peroxide was prepared in phosphate buffer saline pH 7.4 (PBS).
1 tablet (10mg) was dissolved in phosphate citrate buffer (pH 5.0).
5.0ml of ABTS stock solution was diluted with PBS to 20 ml.
320 µg of the enzyme was dissolved in 2.5 ml of PBS.
12µl of Hydrogen Peroxide (30%w/v) was diluted to 100ml with PBS.
0.1mM of stock solution of the drug was prepared which was serially diluted in PBS to get solutions of different concentrations.
To 18ml of ABTS stock solution, 100µl of Horseradish Peroxidase stock solution was added.
As soon as 1.5 ml of hydrogen peroxide solution was added to the above solution, blue-green colour of the ABTS radicals appeared. This solution was incubated at 30°C for 30 min.
980µl of ABTS radical stock solution was added to an eppendorf tube. To it was added 100µl of various PBS solution.
980µl of ABTS radical stock solutions were added to different eppendorf tubes. To it were added 100µl of various concentrations of drug solution.
The absorbance of control and test samples was recorded immediately at 730nm taking PBS as blank.
Calculation: The percent antioxidant activity was calculated according to the formula: % Antioxidant activity = [O.D of test sample/O.D of control*100]-100.

Maillard reaction = assay: AGE inhibiting activity, Method I (BSA + ribose, fluorescence); assay type: biochemical; conditions: 10mM; 37° C for 7 days
Method: The following method was used to determine the inhibitory effect of the test compound on Maillard reaction in-vitro.
Addition of compound was done in aseptic conditions. Sodium azide (0.02%) was also added in this solution in order to prevent microbial growth. A separate tube containing BSA, ribose and sodium azide in the same concentration and buffer as above, but without any test compound, was also incubated as positive control.
After incubation at 37° C for 7 days, 40 micro litre sample from each tube was removed and diluted with PBS to have final concentration of BSA at 1mg/ml. The fluorescence of all the samples was measured at Excitation Maximum of 355nM and the Emission Maximum of 460nM using f-MAX Fluorimeter (Molecular Device, USA). In order to study the effect of test compound on fluorescence, freshly prepared compound solution was mixed with previously incubated positive control (i.e. BSA + ribose), so as to achieve same concentration of all the components as that of test samples.
The percent inhibition of test compound was measured as follows: % Inhibition =(F4 - F3)/(F4)X 100 [formula] Where F3 = Fluorescence of BSA + ribose + compound,F4 is fluorescence of incubated (BSA + ribose) + freshly added test compound.

T1 sequence (P02769 25-607): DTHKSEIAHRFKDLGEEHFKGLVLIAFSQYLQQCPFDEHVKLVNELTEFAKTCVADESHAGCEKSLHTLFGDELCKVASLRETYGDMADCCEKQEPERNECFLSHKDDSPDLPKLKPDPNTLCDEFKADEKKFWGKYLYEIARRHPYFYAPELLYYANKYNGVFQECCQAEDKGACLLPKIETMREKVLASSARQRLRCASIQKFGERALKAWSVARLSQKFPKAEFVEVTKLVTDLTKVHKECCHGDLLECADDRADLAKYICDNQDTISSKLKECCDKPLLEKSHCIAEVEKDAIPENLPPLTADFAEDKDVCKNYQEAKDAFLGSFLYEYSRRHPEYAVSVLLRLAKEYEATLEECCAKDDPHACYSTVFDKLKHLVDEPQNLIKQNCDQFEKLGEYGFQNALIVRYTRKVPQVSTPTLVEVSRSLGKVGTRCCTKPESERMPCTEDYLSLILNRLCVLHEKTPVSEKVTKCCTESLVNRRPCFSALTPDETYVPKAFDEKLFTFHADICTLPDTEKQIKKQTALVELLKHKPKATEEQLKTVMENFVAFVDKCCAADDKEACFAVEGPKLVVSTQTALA

Row | SMILES | % Breakage (AGE-BSA; 10 mM test compound) | AGE breaking activity compared to PTB (AGE-BSA) | Relative Free Radical Scavenging Activity(%) on ABTS ([1]; 11.5µM) | Relative Free Radical Scavenging Activity(%) on ABTS ([1]; 23.0µM) | Relative Free Radical Scavenging Activity(%) on ABTS ([1]; 46.0µM) | Relative Free Radical Scavenging Activity(%) on ABTS ([1]; 92.5µM) | Relative Free Radical Scavenging Activity(%) on ABTS ([1]; 925µM) | further results
1 | CCOC(=O)C[n+]1cccc(C(=O)NNc2ccccn2)c1.[Br-] [Compound 4, 1-(2-ethoxy-2-oxoethyl) -3-(2-(2-pyridyl) hydrazinocarbonyl) pyridinium bromide] | 30% | superior | 58.2% | 64.3% | 69.3% | 98.6% | 100% | –
2 | CCOC(=O)C[n+]1cccc(C(=O)NCCOC(=O)c2ccccc2)c1.[Br-] [Compound 7, 1-(2-ethoxy-2-oxoethyl) -3-(2-(benzoyloxy)ethylaminocarbonyl) pyridinium bromide] | – | – | – | – | – | – | – | % Breakage (AGE-BSA; 20 mM test compound): 36%; %Inhibition (Day 7) (Maillard reaction): 51%
3 | COCCOC(=O)c1ccc[n+](CC(=O)c2ccc(Cl)cc2Cl)c1 [Compound 22, 1-(2-(2', 4'-dichlorophenyl)-2-oxoethyl)-3-(2(methoxy)ethyloxycarbonyl) pyridinium bromide] | 13% | – | 27.9% | 50.9% | 69.3% | 79.7% | 100% | % Breakage (AGE-BSA; 25 mM test compound): 41%
4 | COCCNC(=O)c1ccc[n+](CC(=O)c2ccc(Cl)cc2Cl)c1.[Br-] [Compound 38, 1-(2', 4'-dichlorophenyl-2-oxoethyl)-3-(2-methoxyethylaminocarbonyl)-pyridinium bromide] | – | – | 47.2% | 54.8% | 71.0% | 89.5% | 100% | % Breakage (AGE-BSA; 5 mM test compound): 17.66%
5 | CS(=O)(=O)NNC(=O)c1ccc[n+](CC(=O)c2cccs2)c1.[Cl-] [Compound 45, 1-(2-thien-2'-yl-2-oxoethyl)-3-(methanesulfonyl hydrazinocarbonyl) pyridinium chloride] | 17.53% | – | 53.9% | 56.2% | 78.7% | 99.8% | 100% | –
6 | CC(C)S(=O)(=O)NNC(=O)c1ccc[n+](CC(=O)c2cccs2)c1 [Compound 50, 1-(2-thien-2'-yl-2-oxoethyl)-3-(isopropylsulfonyl hydrazinocarbonyl) pyridinium bromide] | 31.45% | superior | 3.30% | 23.06% | 54.95% | 89.31% | – | –
7 | CS(=O)(=O)NNC(=O)c1ccc[n+](CC(=O)N2CCC(Cc3ccccc3)CC2)c1.[Cl-] [Compound 51, 1-(2-(4-benzylpiperidin-1-yl)-2-oxoethyl)-3-(methanesulfonyl hydrazinocarbonyl) pyridinium chloride] | 20.94% | – | 0.00% | 21.64% | 52.82% | 83.94% | – | –
8 | CS(=O)(=O)NNC(=O)c1ccc[n+](CC(=O)c2ccc(Cl)s2)c1.[Br-] [Compound 55, 1-(2-(5-chlorothien-2-yl)-2-oxoethyl)-3-(methanesulfonyl hydrazinocarbonyl) pyridinium bromide] | 40.85% | – | 46.47% | 84.97% | 99.50% | 99.93% | – | –
9 | O=C(NNC(=O)c1ccc[n+](CC(=O)c2cc([N+](=O)[O-])cs2)c1)c1ccc[n+](CC(=O)c2cc([N+](=O)[O-])cs2)c1 [Compound 56, N, N'-bis [3-carbonyl-1-(2-(4-nitrothien-2-yl)-2-oxoethyl)pyridinium] hydrazine dichloride] | 75.92% | – | 43.0% | – | – | 97.7% | 100% | Relative Free Radical Scavenging Activity(%) on ABTS ([1]; 23 µM): 57.2%; Relative Free Radical Scavenging Activity(%) on ABTS ([1]; 46 µM): 71.6%
10 | CS(=O)(=O)NNC(=O)c1ccc[n+](CC(=O)c2cc([N+](=O)[O-])cs2)c1.[Br-] [Compound 64, 1-(2-(4-nitrothien-2-yl)-2-oxoethyl)-3-(methanesulfonyl hydrazinocarbonyl) pyridinium bromide] | 60.94% | superior | – | – | – | – | 100% | potency (AGE breaking activity compared to PTB) (AGE-BSA): significantly much higher; Relative Free Radical Scavenging Activity(%) on ABTS ([1]; 11.5µM, listed as Compound No.64, 11.5 µM): 41.8% and 26.01%; Relative Free Radical Scavenging Activity(%) on ABTS ([1]; 23.0µM, listed as Compound No.64, 23 µM): 55.7% and 57.39%; Relative Free Radical Scavenging Activity(%) on ABTS ([1]; 46.0µM, listed as Compound No.64, 46 µM): 72.2% and 99.30%; Relative Free Radical Scavenging Activity(%) on ABTS ([1]; 92.5µM, listed as Compound No.64, 92.5 µM): 99.0% and 99.62%
11 | O=C(C[n+]1cccc(C(=O)NNc2ccccc2)c1)Nc1ccccc1.[Cl-] [Compound 65, 1-(2-phenylamino-2-oxoethyl)-3-(phenyl hydrazinocarbonyl) pyridinium chloride] | – | superior | 27.67% | 59.20% | 94.14% | 100.00% | – | % Breakage (AGE-BSA; 2.5 mM test compound): 68.35%; potency (AGE breaking activity compared to PTB) (AGE-BSA): significantly much higher
12 | CS(=O)(=O)NNC(=O)c1ccc[n+](CC(=O)c2ccc([N+](=O)[O-])s2)c1 [Compound 67, 1-2-(5-nitro-thien-2-yl)-2-oxoethyl)-3-(methanesulfonyl hydrazino carbonyl) pyridinium chloride] | – | superior | 13.11% | 50.70% | 97.46% | 99.43% | – | % Breakage (AGE-BSA; 1 mM test compound): 42.01%; potency (AGE breaking activity compared to PTB) (AGE-BSA): significantly much higher
13 | O=C(NNS(=O)(=O)C(F)(F)F)c1ccc[n+](CC(=O)c2cccs2)c1 [Compound 68, 1-(2-thien-2'-yl-2-oxoethyl)-3-(trifluoromethanesulfonyl hydrazinocarbonyl) - pyridinium bromide] | 92.64% | superior | 38.47% | 43.54% | 89.32% | 95.07% | – | potency (AGE breaking activity compared to PTB) (AGE-BSA): significantly much higher
14 | O=C(NCCO)c1ccc[n+](CC(=O)c2cccs2)c1 [Compound 90, 1-(2-Thien-2'-yl-2-oxoethyl)-3-((2-hydroxyethyl)aminocarbonyl) pyridinium bromide] | 50% | – | 47.8% | 58.8% | 78.2% | 99.5% | 100% | –
15 | CCCCOC(=O)c1ccc[n+](CC(=O)Nc2ccccc2)c1.[Cl-] [Compound 93, 1-(2- Phenylamino-2-oxoethyl) -3-(n-butyloxycarbonyl) pyridinium chloride] | 57% | – | 8.5% | 8.6% | 9.6% | 11.4% | 25.0% | –
